Assay results from ChEMBL document CHEMBL4118200, “Boronic acid inhibitors of the class A β-lactamase KPC-2” (Bioorg Med Chem, 2018).
Values after ≈ are worked out from the molar mass of the structure shown.

Columns and labels:
[1] = system: Escherichia coli; assay: microbe, parasite or virus in culture; type: functional; conditions: NCTC 10118, 16 h
[2] = biological target: Beta-lactamase (Escherichia coli) (UniProt Q7BB82); conditions: G69
[3] = biological target: Metallo-beta-lactamase type 2 (Klebsiella pneumoniae) (UniProt C7C422); conditions: NCTC 13443
[4] = system: Bacteria
Description: Inhibition of bacterial beta-lactamase KPC2 expressed in Escherichia coli BL21(DE3) assessed as cefotaxime MIC at 50 ug/ml incubated for 16 hrs by broth microdilution method (Rvb = 16 ug/ml)

[5] = system: Klebsiella pneumoniae; conditions: isolate 342
[6] = Inhibition of bacterial AmpC; set-up: species or system Bacteria

Sequence of Beta-lactamase (Escherichia coli) (Q7BB82 as listed by the source): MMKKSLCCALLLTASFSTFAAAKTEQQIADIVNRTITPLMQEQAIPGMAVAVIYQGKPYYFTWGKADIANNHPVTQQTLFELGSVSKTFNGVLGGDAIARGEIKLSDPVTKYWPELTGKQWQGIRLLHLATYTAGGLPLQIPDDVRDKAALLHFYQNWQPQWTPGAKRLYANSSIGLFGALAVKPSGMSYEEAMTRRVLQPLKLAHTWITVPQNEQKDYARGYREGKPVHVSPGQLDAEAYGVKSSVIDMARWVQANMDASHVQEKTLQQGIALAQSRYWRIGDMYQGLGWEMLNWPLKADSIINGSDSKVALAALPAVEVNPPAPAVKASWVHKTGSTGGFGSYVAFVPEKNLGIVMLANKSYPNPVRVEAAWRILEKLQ
Sequence of Metallo-beta-lactamase type 2 (Klebsiella pneumoniae) (C7C422 whole entry): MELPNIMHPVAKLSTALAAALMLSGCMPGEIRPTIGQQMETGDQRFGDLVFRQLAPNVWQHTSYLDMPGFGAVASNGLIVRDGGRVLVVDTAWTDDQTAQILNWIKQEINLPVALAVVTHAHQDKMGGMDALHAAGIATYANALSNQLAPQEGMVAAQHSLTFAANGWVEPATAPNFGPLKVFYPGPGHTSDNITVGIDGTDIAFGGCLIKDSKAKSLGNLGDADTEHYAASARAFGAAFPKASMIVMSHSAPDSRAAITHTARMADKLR

| Compound | MIC [1] | MIC [2] | MIC [3] | MIC [4] | MIC [5] | Ki [6] |
| --- | --- | --- | --- | --- | --- | --- |
| OB(O)c1cccc(Cn2cc(-c3cccs3)nn2)c1 | ≤ 0.03 µg/mL | > 32 µg/mL | > 32 µg/mL | < 0.03 µg/mL | > 32 µg/mL | – |
| [N-]=[N+]=NCc1ccc(B(O)O)cc1 | ≤ 0.03 µg/mL | > 32 µg/mL | > 32 µg/mL | < 0.03 µg/mL | > 32 µg/mL | – |
| OB(O)c1ccc(Cn2cc(-c3ccccc3)nn2)cc1 | ≤ 0.03 µg/mL | > 32 µg/mL | > 32 µg/mL | < 0.03 µg/mL | > 32 µg/mL | – |
| OB(O)c1ccc(Cn2cc(-c3cccs3)nn2)cc1 | ≤ 0.03 µg/mL | > 32 µg/mL | > 32 µg/mL | 0.12 µg/mL (≈ 0.421 µM) | > 32 µg/mL | – |
| OB(O)c1cccc(Cn2cc(-c3ccccc3)nn2)c1 | ≤ 0.03 µg/mL | > 32 µg/mL | > 32 µg/mL | < 0.03 µg/mL | > 32 µg/mL | – |
| OB(O)c1cccc(/N=N/c2cc3ccccc3cc2O)c1 | – | – | – | – | – | 300 nM |
| COc1ccc(-c2cn(Cc3ccc(B(O)O)cc3)nn2)cc1 | ≤ 0.03 µg/mL | > 32 µg/mL | > 32 µg/mL | 0.06 µg/mL (≈ 0.194 µM) | > 32 µg/mL | – |
| [N-]=[N+]=NCc1cccc(B(O)O)c1 | ≤ 0.03 µg/mL | 8 µg/mL (≈ 45.2 µM) | > 32 µg/mL | < 0.03 µg/mL | > 32 µg/mL | – |
| OB(O)c1cccc(Cn2cc(-c3ccsc3)nn2)c1 | ≤ 0.03 µg/mL | > 32 µg/mL | > 32 µg/mL | < 0.03 µg/mL | > 32 µg/mL | – |
| OB(O)c1ccc(Cn2cc(-c3ccccn3)nn2)cc1 | ≤ 0.03 µg/mL | > 32 µg/mL | > 32 µg/mL | < 0.03 µg/mL | > 32 µg/mL | – |
| O=C(O)C/C=C/c1c(B(O)O)sc2ccccc12 | – | – | – | – | – | 90 nM |
| OB(O)c1cccc(Cn2cc(-c3ccccn3)nn2)c1 | ≤ 0.03 µg/mL | > 32 µg/mL | > 32 µg/mL | < 0.03 µg/mL | > 32 µg/mL | – |
| Nc1cccc(B(O)O)c1 | – | – | – | – | – | 7100 nM |
| OB(O)c1cccc(Cn2cc(-c3cccnc3)nn2)c1 | ≤ 0.03 µg/mL | > 32 µg/mL | > 32 µg/mL | < 0.03 µg/mL | > 32 µg/mL | – |
| O=C(Cc1cccs1)N[C@@H](B(O)O)c1ccccc1 | – | – | – | – | – | 35 nM |
| OB(O)c1ccc(Cn2cc(-c3cccnc3)nn2)cc1 | ≤ 0.03 µg/mL | > 32 µg/mL | > 32 µg/mL | < 0.03 µg/mL | > 32 µg/mL | – |
| OB(O)c1ccc(Cn2cc(-c3ccsc3)nn2)cc1 | ≤ 0.03 µg/mL | > 32 µg/mL | > 32 µg/mL | < 0.03 µg/mL | > 32 µg/mL | – |
| COc1ccc(-c2cn(Cc3cccc(B(O)O)c3)nn2)cc1 | ≤ 0.03 µg/mL | 32 µg/mL (≈ 104 µM) | > 32 µg/mL | 0.12 µg/mL (≈ 0.388 µM) | > 32 µg/mL | – |
